From patent US8916183B2, “Pesticidal compositions and processes related thereto” (priority 2012, dated 2014)
Read-outs that look alike come from different tables or passages of the source.

Key:
Assay type in all cases: in vivo
[1] = tested on: Corn Earworm (CEW) (Helicoverpa zea); experiment: Bioassay on corn earworm (CEW), 128-well diet tray assay; details: Helicoverpa zea, read-out: % Mortality CEW 50 μg/cm^2
Description: (§1) Certain molecules disclosed in this document were tested against BAW and CEW using procedures described in the following examples. In the reporting of the results, the “BAW & CEW Rating Table” was used (See Table Section).
Bioassays on CEW (Helicoverpa zea)
Bioassays on CEW were conducted using a 128-well diet tray assay. […] Trays were covered with a clear self-adhesive cover and held at 25° C., 14:10 light-dark for five to seven days. Percent mortality was recorded for the larvae in each well; activity in the eight wells was then averaged. The results are indicated in the table entitled “Table 5: Biological Results” (See Table Section).

[2] = tested on: Beet Armyworm (BAW) (Spodoptera exigua); experiment: Bioassay on beet armyworm (BAW), 128-well diet tray assay; details: Spodoptera exigua, read-out: % Mortality BAW 50 μg/cm^2
Description: as §1
Bioassays on BAW (Spodoptera exigua)
Bioassays on BAW were conducted using a 128-well diet tray assay. […] Trays were covered with a clear self-adhesive cover and held at 25° C., 14:10 light-dark for five to seven days. Percent mortality was recorded for the larvae in each well; activity in the eight wells was then averaged. The results are indicated in the table entitled “Table 5: Biological Results” (See Table Section).

[3] = tested on: Green Peach Aphid (GPA) (Myzus persicae); experiment: Bioassay on green peach aphid (GPA), foliar spray on cabbage seedlings; details: read-out: % Mortality GPA 200 ppm
Description: Certain molecules disclosed in this document were tested against GPA using procedures described in the following example. In the reporting of the results, the “GPA Rating Table” was used (See Table Section).
Cabbage seedlings grown in 3-inch pots, with 2-3 small (3-5 cm) true leaves, were used as test substrate. The seedlings were infested with 20-50 GPA (wingless adult and nymph stages) one day prior to chemical application. Four pots with individual seedlings were used for each treatment. Test compounds (2 mg) were dissolved in 2 mL of acetone/methanol (1:1) solvent, forming stock solutions of 1000 ppm test compound. […] A hand-held aspirator-type sprayer was used for spraying a solution to both sides of […] leaves until runoff. Reference plants (solvent check) were sprayed with the diluent only containing 20% by volume of acetone/methanol (1:1) solvent. Treated plants were held in a holding room for three days at approximately 25° C. and ambient relative humidity (RH) prior to grading. Evaluation was conducted by counting the number of live aphids per plant under a microscope. […] Corrected % Control=100*(X−Y)/X • where • X=No. of live aphids on solvent check plants and • Y=No. of live aphids on treated plants
The results are indicated in the table entitled “Table 5: Biological Results” (See Table Section).

CC1CS/C(=N\N=C\c2ccc(-c3ncn(-c4ccc(OC(F)(F)F)cc4)n3)cc2)N(c2ccccc2C(C)C)C1 (racemic) [Compound 178C]
mortality at 50 µg/cm2 ([1]; corn earworm, 50 μg/cm^2): 50 to 100% | mortality at 50 µg/cm2 ([2]; beet armyworm, 50 μg/cm^2): 50 to 100% | mortality at 200 ppm ([3]; green peach aphid, 200 ppm): 0%

CC(C)c1ccccc1N1C(=NN=Cc2ccc(-c3ncn(-c4ccc(OC(F)(F)F)cc4)n3)cc2)SCC1C (stereo in doubt) [Compound 155C, (Z)-3-(2-isopropylphenyl)-4-methyl-2-((E)-(4-(1-(4-(trifluoromethoxy)phenyl)-1H-1,2,4-triazol-3-yl)benzylidene)hydrazono)thiazolidine]
mortality at 50 µg/cm2 ([1]; corn earworm, 50 μg/cm^2): 50 to 100% | mortality at 50 µg/cm2 ([2]; beet armyworm, 50 μg/cm^2): 50 to 100% | mortality at 200 ppm ([3]; green peach aphid, 200 ppm): 0%

CS/C(=N\c1ccc(N(C)C)cc1)N/N=C/c1ccc(-c2ncn(-c3ccc(OC(F)(F)F)cc3)n2)cc1 [Compound 1C, N-(4-dimethylaminophenyl)-S-methyl-2-{4-[1-(4-trifluoromethoxyphenyl)-1H-[1,2,4]-triazol-3-yl]-benzylidene}-hydrazine-carbothioamide]
mortality at 50 µg/cm2 ([1]; corn earworm, 50 μg/cm^2): 50 to 100% | mortality at 50 µg/cm2 ([2]; beet armyworm, 50 μg/cm^2): 50 to 100% | mortality at 200 ppm ([3]; green peach aphid, 200 ppm): 0%

CCS/C(=N\c1c(Cl)cccc1Cl)N/N=C/c1ccc(-c2ncn(-c3ccc(OC(F)(F)F)cc3)n2)cc1 [Compound 2C]
mortality at 50 µg/cm2 ([1]; corn earworm, 50 μg/cm^2): 50 to 100% | mortality at 50 µg/cm2 ([2]; beet armyworm, 50 μg/cm^2): 50 to 100% | mortality at 200 ppm ([3]; green peach aphid, 200 ppm): 0%

CCCS/C(=N\c1c(Cl)cccc1Cl)N/N=C/c1ccc(-c2ncn(-c3ccc(OC(F)(F)F)cc3)n2)cc1 [Compound 3C]
mortality at 50 µg/cm2 ([1]; corn earworm, 50 μg/cm^2): 50 to 100% | mortality at 50 µg/cm2 ([2]; beet armyworm, 50 μg/cm^2): 50 to 100% | mortality at 200 ppm ([3]; green peach aphid, 200 ppm): 0%

Cc1cccc(C)c1/N=C(/N/N=C/c1ccc(-c2ncn(-c3ccc(OC(F)(F)F)cc3)n2)cc1)SC/C=C/Br [Compound 4C]
mortality at 50 µg/cm2 ([1]; corn earworm, 50 μg/cm^2): 50 to 100% | mortality at 50 µg/cm2 ([2]; beet armyworm, 50 μg/cm^2): 50 to 100% | mortality at 200 ppm ([3]; green peach aphid, 200 ppm): 0 to 80%

Cc1cccc(C)c1/N=C(/N/N=C/c1ccc(-c2ncn(-c3ccc(OC(F)(F)F)cc3)n2)cc1)SCc1c(F)cccc1F [Compound 5C]
mortality at 50 µg/cm2 ([1]; corn earworm, 50 μg/cm^2): 50 to 100% | mortality at 50 µg/cm2 ([2]; beet armyworm, 50 μg/cm^2): 50 to 100% | mortality at 200 ppm ([3]; green peach aphid, 200 ppm): 0 to 80%

Cc1cccc(C)c1/N=C(/N/N=C/c1ccc(-c2ncn(-c3ccc(OC(F)(F)F)cc3)n2)cc1)SCc1ccc(C(=O)O)cc1 [Compound 6C]
mortality at 50 µg/cm2 ([1]; corn earworm, 50 μg/cm^2): 50 to 100% | mortality at 50 µg/cm2 ([2]; beet armyworm, 50 μg/cm^2): 50 to 100% | mortality at 200 ppm ([3]; green peach aphid, 200 ppm): 0%

Cc1cccc(C)c1/N=C(/N/N=C/c1ccc(-c2ncn(-c3ccc(OC(F)(F)F)cc3)n2)cc1)SCc1ccc(F)cc1F [Compound 7C]
mortality at 50 µg/cm2 ([1]; corn earworm, 50 μg/cm^2): 50 to 100% | mortality at 50 µg/cm2 ([2]; beet armyworm, 50 μg/cm^2): 0% | mortality at 200 ppm ([3]; green peach aphid, 200 ppm): 0%

Cc1cccc(C)c1/N=C(/N/N=C/c1ccc(-c2ncn(-c3ccc(OC(F)(F)F)cc3)n2)cc1)SCc1ccc(OC(F)(F)F)cc1 [Compound 8C]
mortality at 50 µg/cm2 ([1]; corn earworm, 50 μg/cm^2): 50 to 100% | mortality at 50 µg/cm2 ([2]; beet armyworm, 50 μg/cm^2): 50 to 100% | mortality at 200 ppm ([3]; green peach aphid, 200 ppm): 0 to 80%

Cc1cccc(C)c1/N=C(/N/N=C/c1ccc(-c2ncn(-c3ccc(OC(F)(F)F)cc3)n2)cc1)SCC#C[Si](C)(C)C [Compound 9C]
mortality at 50 µg/cm2 [1]: 50 to 100% | mortality at 50 µg/cm2 [2]: 50 to 100% | mortality at 200 ppm [3]: 0%

Cc1cccc(C)c1/N=C(/N/N=C/c1ccc(-c2ncn(-c3ccc(OC(F)(F)F)cc3)n2)cc1)SCc1ccccc1 [Compound 10C]
mortality at 50 µg/cm2 ([1]; corn earworm, 50 μg/cm^2): 50 to 100% | mortality at 50 µg/cm2 ([2]; beet armyworm, 50 μg/cm^2): 50 to 100% | mortality at 200 ppm ([3]; green peach aphid, 200 ppm): 0%

Cc1cccc(C)c1/N=C(/N/N=C/c1ccc(-c2ncn(-c3ccc(OC(F)(F)F)cc3)n2)cc1)SCc1ccccc1F [Compound 11C]
mortality at 50 µg/cm2 ([1]; corn earworm, 50 μg/cm^2): 50 to 100% | mortality at 50 µg/cm2 ([2]; beet armyworm, 50 μg/cm^2): 50 to 100% | mortality at 200 ppm ([3]; green peach aphid, 200 ppm): 0%

COC(=O)c1ccc(CS/C(=N\c2c(C)cccc2C)N/N=C/c2ccc(-c3ncn(-c4ccc(OC(F)(F)F)cc4)n3)cc2)cc1 [Compound 12C]
mortality at 50 µg/cm2 ([1]; corn earworm, 50 μg/cm^2): 50 to 100% | mortality at 50 µg/cm2 ([2]; beet armyworm, 50 μg/cm^2): 50 to 100% | mortality at 200 ppm ([3]; green peach aphid, 200 ppm): 0 to 80%

Cc1cccc(C)c1/N=C(/N/N=C/c1ccc(-c2ncn(-c3ccc(OC(F)(F)F)cc3)n2)cc1)SCc1ccc(S(N)(=O)=O)cc1 [Compound 13C]
mortality at 50 µg/cm2 ([1]; corn earworm, 50 μg/cm^2): 50 to 100% | mortality at 50 µg/cm2 ([2]; beet armyworm, 50 μg/cm^2): 50 to 100% | mortality at 200 ppm ([3]; green peach aphid, 200 ppm): 0 to 80%

Cc1cccc(C)c1/N=C(/N/N=C/c1ccc(-c2ncn(-c3ccc(OC(F)(F)F)cc3)n2)cc1)SCc1cccc2nsnc12 [Compound 14C]
mortality at 50 µg/cm2 ([1]; corn earworm, 50 μg/cm^2): 50 to 100% | mortality at 50 µg/cm2 ([2]; beet armyworm, 50 μg/cm^2): 50 to 100% | mortality at 200 ppm ([3]; green peach aphid, 200 ppm): 0 to 80%

Cc1cccc(C)c1/N=C(/N/N=C/c1ccc(-c2ncn(-c3ccc(OC(F)(F)F)cc3)n2)cc1)SCc1ocnc1-c1ccccc1 [Compound 15C]
mortality at 50 µg/cm2 ([1]; corn earworm, 50 μg/cm^2): 50 to 100% | mortality at 50 µg/cm2 ([2]; beet armyworm, 50 μg/cm^2): 50 to 100% | mortality at 200 ppm ([3]; green peach aphid, 200 ppm): 80 to 100%

Cc1cccc(C)c1/N=C(/N/N=C/c1ccc(-c2ncn(-c3ccc(OC(F)(F)F)cc3)n2)cc1)SCc1ccc(C(F)(F)F)o1 [Compound 16C]
mortality at 50 µg/cm2 ([1]; corn earworm, 50 μg/cm^2): 50 to 100% | mortality at 50 µg/cm2 ([2]; beet armyworm, 50 μg/cm^2): 50 to 100% | mortality at 200 ppm ([3]; green peach aphid, 200 ppm): 0%

Cc1cccc(C)c1/N=C(/N/N=C/c1ccc(-c2ncn(-c3ccc(OC(F)(F)F)cc3)n2)cc1)SCc1ccc(S(C)(=O)=O)cc1 [Compound 17C]
mortality at 50 µg/cm2 ([1]; corn earworm, 50 μg/cm^2): 50 to 100% | mortality at 50 µg/cm2 ([2]; beet armyworm, 50 μg/cm^2): 50 to 100% | mortality at 200 ppm ([3]; green peach aphid, 200 ppm): 0 to 80%

Cc1cccc(C)c1/N=C(/N/N=C/c1ccc(-c2ncn(-c3ccc(OC(F)(F)F)cc3)n2)cc1)SCc1ccc(S(=O)(=O)Nc2ccc(F)cc2)cc1 [Compound 18C]
mortality at 50 µg/cm2 ([1]; corn earworm, 50 μg/cm^2): 50 to 100% | mortality at 50 µg/cm2 ([2]; beet armyworm, 50 μg/cm^2): 50 to 100% | mortality at 200 ppm ([3]; green peach aphid, 200 ppm): 0 to 80%

COCCC(=O)S/C(=N\c1c(C)cccc1C)N/N=C/c1ccc(-c2ncn(-c3ccc(OC(F)(F)F)cc3)n2)cc1 [Compound 21C]
mortality at 200 ppm ([3]; green peach aphid, 200 ppm): 0%

COc1cc(C)c(/N=C(/N/N=C(\C)c2ccc(-c3ncn(-c4ccc(OC(F)(F)F)cc4)n3)cc2)SCOC(=O)C(C)C)c(C)c1 [Compound 26C]
mortality at 200 ppm ([3]; green peach aphid, 200 ppm): 0%

CCOCC(=O)OCS/C(=N\c1c(Cl)cc(OC)cc1Cl)N/N=C/c1ccc(-c2ncn(-c3ccc(OC(F)(F)F)cc3)n2)cc1 [Compound 32C]
mortality at 200 ppm ([3]; green peach aphid, 200 ppm): 0 to 80%

COc1cc(Cl)c(/N=C(/N/N=C/c2ccc(-c3ncn(-c4ccc(OC(F)(F)F)cc4)n3)cc2)SCOC(=O)C(C)C)c(Cl)c1 [Compound 34C]
mortality at 200 ppm ([3]; green peach aphid, 200 ppm): 0 to 80%

Cc1cccc(C)c1/N=C(/N/N=C/c1ccc(-c2ncn(-c3ccc(OC(F)(F)F)cc3)n2)cc1)SCOC(=O)C(C)OCC(F)(F)F (centres unmarked) [Compound 39C]
mortality at 200 ppm ([3]; green peach aphid, 200 ppm): 0%

CC(C)c1ccccc1/N=C1\SCCCN1/N=C/c1ccc(-c2ncn(-c3ccc(C(F)(F)F)cc3)n2)cc1 [Compound 87C, (2Z,NE)-2-((2-isopropylphenyl)imino)-N-(4-(1-(4-(trifluoromethyl)phenyl)-1H-1,2,4-triazol-3-yl)benzylidene)-1,3-thiazinan-3-amine]
mortality at 200 ppm ([3]; green peach aphid, 200 ppm): 0 to 80%

CCC(C)c1ccccc1N1/C(=N/N=C/c2ccc(-c3ncn(-c4ccc(OC(F)(F)F)cc4)n3)cc2)SCC1(O)C(F)(F)F (centres unmarked) [Compound 247C]
mortality at 50 µg/cm2 ([1]; corn earworm, 50 μg/cm^2): 50 to 100% | mortality at 50 µg/cm2 ([2]; beet armyworm, 50 μg/cm^2): 50 to 100%

CC1(O)CS/C(=N\N=C\c2ccc(-c3ncn(-c4ccc(OC(F)(F)F)cc4)n3)cc2)N1c1ccccc1C1CCCC1 (centres unmarked) [Compound 249C]
mortality at 50 µg/cm2 ([1]; corn earworm, 50 μg/cm^2): 50 to 100% | mortality at 50 µg/cm2 ([2]; beet armyworm, 50 μg/cm^2): 50 to 100%

Cc1cccc(N2/C(=N/N=C/c3ccc(-c4ncn(-c5ccc(OC(F)(F)F)cc5)n4)cc3)SCC2(C)O)c1C(C)C (centres unmarked) [Compound 252C]
mortality at 50 µg/cm2 ([1]; corn earworm, 50 μg/cm^2): 50 to 100% | mortality at 50 µg/cm2 ([2]; beet armyworm, 50 μg/cm^2): 50 to 100%

CC(C)c1cc(F)ccc1N1/C(=N/N=C/c2ccc(-c3ncn(-c4ccc(OC(F)(F)F)cc4)n3)cc2)SCC1(C)O (centres unmarked) [Compound 258C]
mortality at 50 µg/cm2 ([1]; corn earworm, 50 μg/cm^2): 50 to 100% | mortality at 50 µg/cm2 ([2]; beet armyworm, 50 μg/cm^2): 50 to 100%
